Experimental data: US9150575B2, “Piperidinylpyrazolopyridine derivative” (Daiichi Sankyo Company, Limited, priority 2012, dated 2015)

What was measured:
LCAT = target: T1, LCAT (Homo sapiens, UniProt P04180); assay: LCAT Activity Measurement (In Vitro); format: biochemical; conditions: EC50 of LCAT activation; HDL3 fraction from plasma of a healthy person as enzyme source and acceptor; [14C]cholesterol; 37° C., approximately 16 hours
T1 construct: The obtained fraction was dialyzed against phosphate-buffered saline (pH 7.4) and used as an enzyme source and an acceptor for LCAT; from tissue; host or cells: HDL3 fraction (1.125<specific gravity<1.210 g/mL) of plasma from a healthy person
T1 sequence (P04180 25-440): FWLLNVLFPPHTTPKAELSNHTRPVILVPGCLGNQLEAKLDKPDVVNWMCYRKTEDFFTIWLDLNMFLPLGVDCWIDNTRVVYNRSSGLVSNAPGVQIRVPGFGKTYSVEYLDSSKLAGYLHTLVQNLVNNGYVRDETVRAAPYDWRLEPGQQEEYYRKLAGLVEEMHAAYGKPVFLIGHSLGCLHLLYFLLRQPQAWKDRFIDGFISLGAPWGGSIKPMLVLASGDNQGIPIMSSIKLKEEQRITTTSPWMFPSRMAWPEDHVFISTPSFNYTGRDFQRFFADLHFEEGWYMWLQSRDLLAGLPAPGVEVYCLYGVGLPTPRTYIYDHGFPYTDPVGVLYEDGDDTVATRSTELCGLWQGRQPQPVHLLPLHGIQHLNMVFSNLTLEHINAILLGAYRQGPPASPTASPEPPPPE
How it was run: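 Human plasma HDL3 (1 mg/mL, PBS pH 7.4) served as enzyme and acceptor with [14C]cholesterol, 0.5 mM DTNB, 12.5 mM mercaptoethanol and 0.6% BSA; compounds in DMSO, incubated ~16 h at 37 °C. Cholesterol oleate radioactivity quantified after extraction and TLC; EC50 of activation fitted relative to no-drug control.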

cynomolgus monkey = assay: Drug Efficacy Test in Cynomolgus Monkeys; format: in vivo; conditions: oral, single dose of 10 mg/kg, compared with before administration, from AUC before administration and 24 hours after administration
Method: Each test drug was dissolved in a propylene glycol (Sigma-Aldrich Corp.)-Tween 80 (Sigma-Aldrich Corp.) mixed solution [4/1 (v/v)] or a 0.5% (w/v) methylcellulose aqueous solution, and the solution was orally administered to a cynomolgus monkey for 1 or 7 days. At 1 or 7 day of administration period, blood was collected before administration and after administration, and plasma was obtained. The content of cholesterol in the plasma was measured using a commercially available assay kit (Cholesterol-E Wako, Wako Pure Chemical Industries, Ltd.). The lipoprotein profile was analyzed by HPLC (column: LipopropakXL, manufactured by Tosoh Corp.). The contents of HDL cholesterol and non-HDL cholesterol were calculated according to the following calculation expression: Content of HDL cholesterol=Content of cholesterol in the plasma×(Peak area of HDL cholesterol/Total sum of peaks) Content of non-HDL cholesterol=Content of cholesterol in the plasma×(Peak area of non-HDL cholesterol/Total sum of peaks)
The rate (%) of increase in HDL level after the administration of a single dose of 10 mg/kg compared with before administration was determined from AUC before administration and 24 hours after administration.

SMILES	EC50 (LCAT) [nM]	Rate of increase in HDL level after administration of single dose (cynomolgus monkey) [%]
O=C1CC(O)(C(F)(F)F)c2c(C3CCN(c4cccc(C(F)(F)F)n4)CC3)n[nH]c2N1 (stereo not shown) [Example 7, 4-Hydroxy-4-(trifluoromethyl)-3-{1-[6-(trifluoromethyl)pyridin-2-yl]piperidin-4-yl}-1,4,5,7-tetrahydro-6H-pyrazolo[3,4-b]pyridin-6-one]	48	334
O=C1CC(O)(C(F)(F)F)c2c(C3CCN(c4ncc(C(F)(F)F)cc4Cl)CC3)n[nH]c2N1 (stereo not shown) [Example 10, 3-{1-[3-Chloro-5-(trifluoromethyl)pyridin-2-yl]piperidin-4-yl}-4-hydroxy-4-(trifluoromethyl)-1,4,5,7-tetrahydro-6H-pyrazolo[3,4-b]pyridin-6-one]	210	526

Compounds with a lower EC50 (LCAT), results first:

EC50 (LCAT) [nM]	SMILES	Rate of increase in HDL level after administration of single dose (cynomolgus monkey) [%]
45	O=C1CC(O)(C(F)(F)F)c2c(C3CCN(c4ccc(Cl)cn4)CC3)n[nH]c2N1 (single isomer, unassigned; (-)) [Compound 50-1, (−)-3-[1-(5-Chloropyridin-2-yl)piperidin-4-yl]-4-hydroxy-4-(trifluoromethyl)-1,4,5,7-tetrahydro-6H-pyrazolo[3,4-b]pyridin-6-one]	433
45	O=C1CC(O)(C(F)(F)F)c2c(C3CCN(c4ccc(OC(F)F)cc4)CC3)n[nH]c2N1 (single isomer, unassigned; (-)) [Compound 56-1, (−)-3-{1-[4-(Difluoromethoxy)phenyl]piperidin-4-yl}-4-hydroxy-4-(trifluoromethyl)-1,4,5,7-tetrahydro-6H-pyrazolo[3,4-b]pyridin-6-one]	644
21	O=C1CC(O)(C(F)(F)F)c2c(C3CCN(c4ccc(C(F)(F)F)cn4)CC3)n[nH]c2N1 (stereo not shown) [Example 8, 4-Hydroxy-4-(trifluoromethyl)-3-{1-[5-(trifluoromethyl)pyridin-2-yl]piperidin-4-yl}-1,4,5,7-tetrahydro-6H-pyrazolo[3,4-b]pyridin-6-one]	531
